Data published in PubChem BioAssay AID200 (DTP/NCI, 2004).
Where “and” joins values, the source holds several entries; their conditions need not be identical. Identical values can stand only once. Toxic doses and inconclusive results are not listed. Where a SMILES comes first, the peptide text is derived from it. [ ]: non-standard residue; d: D form. The star is where a group is joined. Cbz = O=C(OCc1ccccc1)*; Nva = CCC[CH](N)C(=O)O

Test system: B6C3F1 mice, B16 melanoma ip, median survival T/C
Experiment: NCI In Vivo Anticancer Drug Screen. Data for tumor model B16 Melanoma (intraperitoneal) in B6C3F1 mice
Details: endpoint: median survival time, schedule: Q01DX009 (ip), higher = longer survival
Procedure, shortened: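 Transplantable tumor in mice; treated vs vehicle control groups; survival or tumor size measured; value = T/C ratio.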

[1] = dose: 12.5 mg/kg/injection, vehicle: saline with Tween-80
[2] = dose: 25.0 mg/kg/injection, vehicle: saline with Tween-80
[3] = dose: 50.0 mg/kg/injection, vehicle: saline with Tween-80
[4] = dose: 100.0 mg/kg/injection, vehicle: saline with Tween-80
[5] = dose: 12.5 mg/kg/injection, vehicle: Klucel (hydroxypropylcellulose) (HPC)
[6] = dose: 25.0 mg/kg/injection, vehicle: Klucel (hydroxypropylcellulose) (HPC)
[7] = dose: 50.0 mg/kg/injection, vehicle: Klucel (hydroxypropylcellulose) (HPC)
[8] = dose: 100.0 mg/kg/injection, vehicle: Klucel (hydroxypropylcellulose) (HPC)
[9] = dose: 25.0 mg/kg/injection, vehicle: saline
[10] = dose: 50.0 mg/kg/injection, vehicle: saline
[11] = dose: 100.0 mg/kg/injection, vehicle: saline
[12] = dose: 200.0 mg/kg/injection, vehicle: saline
[13] = dose: 400.0 mg/kg/injection, vehicle: saline
[14] = dose: 200.0 mg/kg/injection, vehicle: saline with Tween-80
[15] = dose: 6.25 mg/kg/injection, vehicle: Klucel (hydroxypropylcellulose) (HPC)

## O=[N+]([O-])c1ccc(Sc2ccncn2)c([N+](=O)[O-])c1
[1]
  T/C: 92 % of control
[2]
  T/C: 105 % of control
[3]
  T/C: 92 % of control
[4]
  T/C: 101 % of control

## COc1ccc2[nH]c3ccc4cc[n+](CCN5CCC(C6CCN(CC[n+]7ccc8ccc9[nH]c%10ccc(OC)cc%10c9c8c7)CC6)CC5)cc4c3c2c1
dose: 6.0 mg/kg/injection, vehicle: water
  T/C: 155 % of control
dose: 12.0 mg/kg/injection, vehicle: water
  T/C: 158 % of control
[5]
  T/C: 155 % of control
[6]
  T/C: 203 % of control
dose: 25.0 mg/kg/injection, vehicle: water
  T/C: 177 % of control
[7]
  T/C: 192 % of control
dose: 50.0 mg/kg/injection, vehicle: water
  T/C: 168 % of control
[8]
  T/C: 167 % of control
dose: 100.0 mg/kg/injection, vehicle: water
  T/C: 197 % of control

## C1CCC(NC2CCCCC2)CC1
[9]
  T/C: 86 % of control
[10]
  T/C: 101 % of control
[11]
  T/C: 106 % of control
[12]
  T/C: 86 % of control
[13]
  T/C: 104 % of control

## Nc1ccc(OCCCc2c(-c3ccccc3)nc(N)[nH]c2=O)cc1
[2]
  T/C: 121 % of control
[3]
  T/C: 102 % of control
[4]
  T/C: 118 % of control
[14]
  T/C: 96 % of control

## Nc1ccc2cc(S(=O)(=O)O)cc(O)c2c1N=Nc1ccc(F)cc1
[2]
  T/C: 95 % of control
[3]
  T/C: 98 % of control
[4]
  T/C: 90 % of control

## CCN(C)N=Nc1ccc(C(N)=O)cc1
[15]
  T/C: 117 % of control and 95 % of control
[5]
  T/C: 104 % of control and 106 % of control
[6]
  T/C: 95 % of control and 101 % of control
[7]
  T/C: 110 % of control and 102 % of control

## Nc1nc(-c2cccc([N+](=O)[O-])c2)c(Br)c(=O)[nH]1
[2]
  T/C: 115 % of control
[3]
  T/C: 122 % of control

## CC(O)C(NC(=O)OC(C)(C)C)C(=O)ON1C(=O)CCC1=O (stereo not drawn)
[3]
  T/C: 98 % of control
[4]
  T/C: 96 % of control
[14]
  T/C: 91 % of control

## CC1C(c2ccccc2)OC(N2CCOCC2)C(C)(C)CN1C (stereo not drawn)
[3]
  T/C: 103 % of control
[4]
  T/C: 99 % of control
[14]
  T/C: 96 % of control
dose: 400.0 mg/kg/injection, vehicle: saline with Tween-80
  T/C: 100 % of control

## CCCC(NC(=O)OCc1ccccc1)C(=O)NC(CC(C)C)C(=O)O (stereo not drawn) (Cbz-[Nva]-Leu-OH; configuration not given here)
[8]
  T/C: 104 % of control
dose: 200.0 mg/kg/injection, vehicle: Klucel (hydroxypropylcellulose) (HPC)
  T/C: 104 % of control
dose: 400.0 mg/kg/injection, vehicle: Klucel (hydroxypropylcellulose) (HPC)
  T/C: 96 % of control

## O=C([O][Bi]([c]1ccccc1)[c]1ccccc1)c1ccccc1
[15]
  T/C: 101 % of control
[5]
  T/C: 96 % of control
[6]
  T/C: 88 % of control

## Cc1nnc2ncccn12
dose: 12.5 mg/kg/injection, vehicle: saline
  T/C: 97 % of control and 106 % of control
[9]
  T/C: 96 % of control and 103 % of control
[10]
  T/C: 98 % of control and 100 % of control
[11]
  T/C: 97 % of control and 103 % of control
[12]
  T/C: 94 % of control and 97 % of control
[13]
  T/C: 90 % of control and 102 % of control

## COc1ccc(C(=O)CC2CCCC(CC(=O)c3ccc(OC)cc3)N2C)cc1 (stereo not drawn)
[3]
  T/C: 103 % of control
[4]
  T/C: 101 % of control

## CCC1CC2CN(CCc3c([nH]c4ccccc34)C(C(=O)OC)(c3cc4c(cc3OC)N(C)C3C(O)(C(=O)OC)C(OC(C)=O)C5(CC)C=CCN6CCC43C65)C2)C1 (stereo not drawn)
dose: 0.06 mg/kg/injection, vehicle: saline
  T/C: 111 % of control
dose: 0.06 mg/kg/injection, vehicle: suspension in saline
  T/C: 116 % of control
dose: 0.12 mg/kg/injection, vehicle: suspension in saline
  T/C: 114 % of control
dose: 0.13 mg/kg/injection, vehicle: saline
  T/C: 110 % of control
dose: 0.5 mg/kg/injection, vehicle: saline
  T/C: 175 % of control
dose: 1.0 mg/kg/injection, vehicle: saline
  T/C: 208 % of control
dose: 2.0 mg/kg/injection, vehicle: saline
  T/C: 248 % of control
dose: 2.0 mg/kg/injection, vehicle: suspension in saline
  T/C: 226 % of control

## CCNC(=O)[B-][N+](C)(C)C
[5]
  T/C: 93 % of control
[6]
  T/C: 95 % of control

## Cc1cc(O)c2c(c1O)C(=O)C13C(=C2O)C(=O)C2C(O)C1C1C(O)C3C(=O)C3=C(O)c4c(O)cc(C)c(O)c4C(=O)C321 (stereo not drawn)
dose: 0.19 mg/kg/injection, vehicle: saline with Tween-80
  T/C: 109 % of control
dose: 0.2 mg/kg/injection, vehicle: saline with Tween-80
  T/C: 124 % of control
dose: 0.39 mg/kg/injection, vehicle: saline with Tween-80
  T/C: 114 % of control and 106 % of control
dose: 0.78 mg/kg/injection, vehicle: saline with Tween-80
  T/C: 117 % of control
dose: 1.56 mg/kg/injection, vehicle: saline with Tween-80
  T/C: 117 % of control

## [N-]=[N+]=[N-]
dose: 1.5 mg/kg/injection, vehicle: saline
  T/C: 101 % of control
dose: 3.0 mg/kg/injection, vehicle: saline
  T/C: 90 % of control
dose: 6.0 mg/kg/injection, vehicle: saline
  T/C: 103 % of control
dose: 12.0 mg/kg/injection, vehicle: saline
  T/C: 108 % of control

## O=C1N=C(Oc2ccccc2)SC1=O
[1]
  T/C: 110 % of control
[2]
  T/C: 98 % of control
[3]
  T/C: 103 % of control
[4]
  T/C: 92 % of control

## CN(C)CC1CCCC(CN(C)C)C1=O (stereo not drawn)
[10]
  T/C: 103 % of control
[11]
  T/C: 97 % of control
[12]
  T/C: 100 % of control
